# In PMC9415608, “Design, Synthesis and Biological Investigation of 2-Anilino Triazolopyrimidines as Tubulin Polymerization Inhibitors with Anticancer Activities” (Pharmaceuticals, 2022):
# Where two headings read alike, the source gives them in different places.
# How the values were obtained:
# [1] = system: MDA-MB-231, HeLa, A549 and HT-29 cancer cell lines; assay: Antiproliferative activity stated across the panel of cancer cell lines; type: cell-based, human; conditions: for IC50: Homo sapiens, read-out: IC50
# Experimental: (§1) All the cell lines used in this paper were of human origin and purchased from the American Type Culture Collection (ATCC, Manassas, VA, USA). Colon adenocarcinoma (HT-29), non-small cell lung carcinoma (A549), cervix carcinoma (HeLa) and breast adenocarcinoma (MDA-MB-231) cells were grown in RPMI (HT29) or DMEM (A549, HeLa, MDA-MB-231) medium (Gibco, Milano, Italy). Both media were supplemented with 115 units/mL of penicillin G (Gibco, Milano, Italy), 115 μg/mL of streptomycin (Invitrogen, Milano, Italy) and 10% fetal bovine serum (Invitrogen, Milano, Italy). All cell lines were grown at 37 °C in a humidified 5% CO2 atmosphere. The cells were grown in 2 mL of complete medium.
# (§2) Stock solutions were prepared for each compound by dissolving in DMSO at the final concentration of 10 mM.
# (§3) The cells were seeded in 96-well plates at the appropriate density for each cell line. The respective cell line densities used for the antiproliferative assay were HeLa and HT29 5000 cells/well, A549 4000 cells/well and MDA-MB-231 7000 cells/well. The total volume of medium was 100 µL. After 24 h, the cells were treated by performing serial 5-fold dilutions of the tested compounds starting from a concentration of 10 μM. All experimental conditions were tested in triplicate for statistical analysis. After 72 h of incubation, 10 μL of 100 μg/mL resazurin solution was added to each well and the plate was re-incubated for 3–4 h. The fluorescence of the wells in each plate was monitored using a Spark 10M spectrophotometer (Tecan Group Ltd., Mannedorf, Switzerland) with a 535 nm excitation wavelength and a 600 nm emission wavelength.
# MDA-MB-231 = assay: In vitro cell growth inhibition, resazurin viability assay; type: cell-based, human; conditions: Homo sapiens, MDA-MB-231; 72 h, resazurin; mean ± SE
# Experimental: as §1, §2, §3
# HeLa = assay: as above; type: cell-based, human; conditions: for IC50: Homo sapiens, 72 h, resazurin, mean ± SE
# Experimental: as §1, §2, §3
# HT29 = assay: as above; type: cell-based, human; conditions: for IC50: Homo sapiens, HT-29, 72 h, resazurin, mean ± SE
# Experimental: as §1, §2, §3
# A549 = assay: as above; type: cell-based, human; conditions: Homo sapiens, A549; 72 h, resazurin; mean ± SE
# Experimental: as §1, §2, §3
# Bovine brain tubulin [2] = assay: Inhibition of [3H]colchicine binding to tubulin; conditions: tubulin 0.5 µM, [3H]colchicine 5 µM, tested compound 5 µM
# Experimental: (§4) Bovine brain tubulin was purified as described previously. To evaluate the effects of the compounds on tubulin assembly in vitro [80], varying concentrations were preincubated with 10 μM tubulin in 0.8 M monosodium glutamate (pH 6.6) at 30 °C and the reaction mixtures then cooled to 0 °C. After addition of GTP, the mixtures were transferred to 0 °C cuvettes in Beckman Coulter (Brea, CA, USA) DU-7400/DU-7500 recording spectrophotometers equipped with electronic temperature controllers and warmed to 30 °C, and the assembly of tubulin was observed turbidimetrically. […] Inhibition of colchicine binding to tubulin was measured as described before, except that the reaction mixtures contained 0.5 μM tubulin and 5 μM each of [^3H]colchicine and test compound. Only one DEAE-cellulose filter was used per sample, and filtration was by gravity.
# (§5) Bovine brain tubulin (see ref. [79] for details of purification) was used to examine effects on tubulin polymerization and colchicine binding. Briefly, in the polymerization experiments, different compound concentrations were preincubated with 10 µM tubulin for 15 min at 30 °C and cooled on ice. After GTP was added to each reaction mixture, the samples were transferred to 0 °C cuvettes in recording spectrophotometers with electronic temperature controllers. The temperature was raised to 30 °C over about 30 s, and turbidity development was followed for 20 min at 350 nm. […] In the current studies, [^3H]colchicine (from American Radiolabeled Corp., St. Louis, MO) binding was measured after 10 min at 37 °C. Reaction mixtures contained 0.5 µM tubulin and 5.0 µM each of the [^3H]colchicine and the potential inhibitor, and a single DEAE-cellulose filter was used for each sample, with gravity filtration.
# Bovine brain tubulin [3] = assay: Inhibition of tubulin polymerization (turbidimetric assembly assay); type: biochemical; conditions: tubulin at 10 μM, 20 min incubation; read-out: Tubulin Assembly IC50 ± SD
# Experimental: as §4, §5
# [4] = stated for the panel of cancer cell lines as a whole
SMILES,melting point [°C],IC50 ([1]; against three of the four cancer cell lines (not HT-29)) [µM],IC50 (MDA-MB-231) [µM],IC50 (HeLa) [µM],IC50 (HT29) [µM],IC50 (A549) [µM],"IC50 [1, 4] [µM]",Colchicine Binding % Inhibition ± SD (Bovine brain tubulin [2]) [%],IC50 (Bovine brain tubulin [3]) [µM],fold reduction in potency relative to 3a (HT29; HT-29 cells) [fold],fold reduction in antiproliferative activity relative to 3d ([1]; range over cell lines),fold increase in antiproliferative activity relative to 3k ([1]; three of the four cancer cell lines),fold more active than 3n (HeLa; HeLa cells) [fold],fold more active than 3n (HT29; HT-29 cells) [fold]
"COc1cc(-c2ccnc3nc(Nc4cc(C)cc(C)c4)nn23)cc(OC)c1OC [Compound 3g, N-(3,5-Dimethylphenyl)-7-(3,4,5-trimethoxyphenyl)-[1,2,4]triazolo[1,5-a]pyrimidin-2-amine]",228 to 230,–,> 10,> 10,> 10,> 10,> 10,–,–,–,–,–,–,–
"COc1cc(-c2ccnc3nc(Nc4ccc5c(c4)OCO5)nn23)cc(OC)c1OC [Compound 3n, N-(Benzo[d][1,3]dioxol-5-yl)-7-(3,4,5-trimethoxyphenyl)-[1,2,4]triazolo[1,5-a]pyrimidin-2-amine]",234 to 236,–,6.1 ± 1.72,–,1.39 ± 0.06,1.44 ± 0.26,–,–,–,–,–,1.5- to 4 fold,–,–
"COc1cc(-c2ccnc3nc(Nc4ccc5c(c4)OCCO5)nn23)cc(OC)c1OC [Compound 3o, N-(2,3-Dihydrobenzo[b][1,4]dioxin-6-yl)-7-(3,4,5-trimethoxyphenyl)-[1,2,4]triazolo[1,5-a]pyrimidin-2-amine]",212 to 214,–,> 10,0.29 ± 0.031,0.67 ± 0.12,2.42 ± 0.12,–,–,–,–,–,–,3,2
"COc1cc(-c2ccnc3nc(NCc4ccccc4)nn23)cc(OC)c1OC [Compound 3p, N-Benzyl-7-(3,4,5-trimethoxyphenyl)-[1,2,4]triazolo[1,5-a]pyrimidin-2-amine]",144 to 146,–,9.3 ± 0.22,> 10,> 10,> 10,> 10,–,–,–,–,–,–,–
"COc1cc(-c2ccnc3nc(NCc4ccc(Cl)cc4)nn23)cc(OC)c1OC [Compound 3q, N-(4-Chlorobenzyl)-7-(3,4,5-trimethoxyphenyl)-[1,2,4]triazolo[1,5-a]pyrimidin-2-amine]",171 to 173,–,> 10,> 10,> 10,> 10,–,–,–,–,–,–,–,–
"COc1cc(-c2ccnc3nc(NCc4ccc(C)cc4)nn23)cc(OC)c1OC [Compound 3r, N-(4-Methylbenzyl)-7-(3,4,5-trimethoxyphenyl)-[1,2,4]triazolo[1,5-a]pyrimidin-2-amine]",156 to 158,–,> 10,> 10,> 10,> 10,> 10,–,–,–,–,–,–,–
"COc1ccc(CNc2nc3nccc(-c4cc(OC)c(OC)c(OC)c4)n3n2)cc1 [Compound 3s, N-(4-Methoxybenzyl)-7-(3,4,5-trimethoxyphenyl)-[1,2,4]triazolo[1,5-a]pyrimidin-2-amine]",190 to 192,–,> 10,> 10,> 10,> 10,> 10,–,–,–,–,–,–,–
"COc1cc(-c2ccnc3nc(NCc4ccc5c(c4)OCO5)nn23)cc(OC)c1OC [Compound 3t, N-(Benzo[d][1,3]dioxol-5-ylmethyl)-7-(3,4,5-trimethoxyphenyl)-[1,2,4]triazolo[1,5-a]pyrimidin-2-amine]",233 to 235,–,> 10,> 10,> 10,> 10,> 10,–,–,–,–,–,–,–
"COc1cc(-c2ccnc3nc(NCCc4ccccc4)nn23)cc(OC)c1OC [Compound 3u, N-Phenethyl-7-(3,4,5-trimethoxyphenyl)-[1,2,4]triazolo[1,5-a]pyrimidin-2-amine]",138 to 139,–,8.7 ± 1.1,> 10,6.74 ± 0.5,> 10,> 10,–,–,–,–,–,–,–
"COc1cc(-c2ccnc3nc(NCCCc4ccccc4)nn23)cc(OC)c1OC [Compound 3v, N-(3-Phenylpropyl)-7-(3,4,5-trimethoxyphenyl)-[1,2,4]triazolo[1,5-a]pyrimidin-2-amine]",98 to 100,–,> 10,> 10,> 10,> 10,> 10,–,–,–,–,–,–,–

# Continued, in another order:
melting point [°C],IC50 ([1]; against three of the four cancer cell lines (not HT-29)) [µM],IC50 (MDA-MB-231) [µM],IC50 (HeLa) [µM],IC50 (HT29) [µM],IC50 (A549) [µM],"IC50 [1, 4] [µM]",Colchicine Binding % Inhibition ± SD (Bovine brain tubulin [2]) [%],IC50 (Bovine brain tubulin [3]) [µM],SMILES,fold reduction in potency relative to 3a (HT29; HT-29 cells) [fold],fold reduction in antiproliferative activity relative to 3d ([1]; range over cell lines),fold increase in antiproliferative activity relative to 3k ([1]; three of the four cancer cell lines),fold more active than 3n (HeLa; HeLa cells) [fold],fold more active than 3n (HT29; HT-29 cells) [fold]
235 to 236,–,–,–,–,–,–,–,–,"COc1cc(-c2ccnc3nc(Nc4ccccc4)nn23)cc(OC)c1OC [Compound 3a, N-Phenyl-7-(3,4,5-trimethoxyphenyl)-[1,2,4]triazolo[1,5-a]pyrimidin-2-amine]",–,–,–,–,–
172 to 174,> 10,> 10,> 10,3.42 ± 0.41,> 10,–,–,–,"COc1cc(-c2ccnc3nc(Nc4cccnc4)nn23)cc(OC)c1OC [Compound 3b, N-(Pyridin-3-yl)-7-(3,4,5-trimethoxyphenyl)-[1,2,4]triazolo[1,5-a]pyrimidin-2-amine]",3,–,–,–,–
234 to 235,–,> 10,5.44 ± 1.05,> 10,> 10,–,–,–,"COc1cc(-c2ccnc3nc(Nc4ccc(F)cc4)nn23)cc(OC)c1OC [Compound 3c, N-(4-Fluorophenyl)-7-(3,4,5-trimethoxyphenyl)-[1,2,4]triazolo[1,5-a]pyrimidin-2-amine]",–,–,–,–,–
229 to 230,–,> 10,0.39 ± 0.02,1.38 ± 0.09,1.87 ± 0.17,–,–,–,"COc1cc(-c2ccnc3nc(Nc4cccc(C)c4)nn23)cc(OC)c1OC [Compound 3e, N-(m-Tolyl)-7-(3,4,5-trimethoxyphenyl)-[1,2,4]triazolo[1,5-a]pyrimidin-2-amine]",–,10–46 fold,–,–,–
185 to 187,–,> 10,> 10,> 10,> 10,–,–,–,"CCCc1ccc(Nc2nc3nccc(-c4cc(OC)c(OC)c(OC)c4)n3n2)cc1 [Compound 3i, N-(4-Propylphenyl)-7-(3,4,5-trimethoxyphenyl)-[1,2,4]triazolo[1,5-a]pyrimidin-2-amine]",–,–,–,–,–
212 to 214,–,> 10,4.7 ± 0.59,> 10,> 10,–,–,–,"COc1cc(-c2ccnc3nc(Nc4ccc(C(C)C)cc4)nn23)cc(OC)c1OC [Compound 3j, N-(4-Isopropylphenyl)-7-(3,4,5-trimethoxyphenyl)-[1,2,4]triazolo[1,5-a]pyrimidin-2-amine]",–,–,–,–,–
213 to 215,–,–,–,–,–,–,–,–,"COc1ccc(Nc2nc3nccc(-c4cc(OC)c(OC)c(OC)c4)n3n2)cc1 [Compound 3k, N-(4-Methoxyphenyl)-7-(3,4,5-trimethoxyphenyl)-[1,2,4]triazolo[1,5-a]pyrimidin-2-amine]",–,–,–,–,–
165 to 166,–,1.76 ± 0.9,0.44 ± 0.08,0.76 ± 0.18,0.76 ± 0.18,–,39 ± 5,2.2 ± 0.2,"COc1cccc(Nc2nc3nccc(-c4cc(OC)c(OC)c(OC)c4)n3n2)c1 [Compound 3l, N-(3-Methoxyphenyl)-7-(3,4,5-trimethoxyphenyl)-[1,2,4]triazolo[1,5-a]pyrimidin-2-amine]",–,–,–,–,–
205 to 207,–,> 10,> 10,6.16 ± 0.97,> 10,> 10,–,–,"CCOc1ccc(Nc2nc3nccc(-c4cc(OC)c(OC)c(OC)c4)n3n2)cc1 [Compound 3m, N-(4-Ethoxyphenyl)-7-(3,4,5-trimethoxyphenyl)-[1,2,4]triazolo[1,5-a]pyrimidin-2-amine]",–,–,–,–,–
